In patent US10036741B2, “Systems, models and methods for identifying and evaluating skin-active agents effective for treating an array of skin disorders” (The Procter & Gamble Company, priority 2012, dated 2018):

Tests used:
[1] = test system: unhealthy skin gene expression signature; test: Connectivity mapping (C-map) query of stored skin instances with the unhealthy skin gene expression signature; assay type: cell-based, human; conditions: text statement on highest-ranked results of Table C
Text: Referring to FIG. 6 and FIG. 7, an exemplary method for querying instances with one or more gene expression signatures will now be described. Broadly, the method comprises querying a data architecture of stored instances (e.g., skin instances) with one or more gene signatures (e.g., an unhealthy skin gene expression signature), and applying a statistical method to determine how strongly the gene expression signature genes match the regulated genes in an instance.
The up-score and down-score have, for example, values between +1 and −1. […] In these embodiments, the gene expression signature comprises the combination of the up list and the down list. […]
The combination of the up-score and down-score is used to calculate an overall connectivity score for each instance, and in embodiments where up- and down-score ranges are set between −1 and +1, the connectivity score ranges from −2 to +2, and represents the strength of match between a query gene expression signature and the instance. The sign of the overall score is determined by whether the instance links positivity or negatively to the signature. […]

dandruff = test: Effect of ZPT-containing shampoo on the unhealthy skin gene expression signature in dandruff sufferers (Study 2); assay type: in vivo, human; conditions: dandruff subjects, scalp biopsies, three weeks of treatment
Experimental: Hierarchical Cluster Analysis of Dandruff vs. Non-Dandruff (Study 1): Genome-wide transcriptional profiles of the dandruff condition and healthy scalp were assessed using RNA extracted from full thickness scalp biopsies. […] Each row in FIG. 9 represents a single probe set and each column represents the group average of all subjects (not a single microarray experiment).
Effect of zinc pyrithione (ZPT) on the Unhealthy Skin Gene Expression Signature in Dandruff Sufferers (Study 2): We examined the effect of ZPT on the transcriptomic profile in dandruff sufferers during a course of treatment known to resolve the key symptoms of the condition (flake and itch) and substantially restore the scalp skin histology and cell surface biomarker profile to a healthy state. In this study, we were able to replicate our key transcriptomic findings from Study 1 in a second study population. It is notable that using the expression levels of the same 400 probe sets in the unhealthy gene expression signature, which all satisfied the p<0.05 criterion, hierarchical cluster analysis again clearly separated Dandruff from Non-dandruff (see All Dandruff Baseline vs. Non-Dandruff Baseline). […] This underscores the fundamental importance of the gene products associated with this signature to skin homeostasis.

Molecule | rank of instances in C-map query (linkage score) [1] | gene expression profile (400 probe sets of unhealthy skin signature), hierarchical cluster analysis (dandruff)
CC1=C(/C=C/C(C)=C/C=C/C(C)=C/C(=O)O)C(C)(C)CCC1 [All-trans retinoic acid] | strongest negative linkage scores | –
NC(=O)c1cccnc1 [Nicotinamide] | strongest negative linkage scores | –
zinc pyrithione [zinc pyriothione] | – | reversal of the unhealthy skin gene expression signature
